From PubChem BioAssay (NCI)
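Test compounds were applied to cells in 96-well plates for 48 hours at 5 doses. GI50 = concentration required for 50% inhibition of growth. TGI: total growth inhibition.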

Assays:
Assay in all cases: growth of human tumour cells (NCI), 48 h
NCI-H226 lung = system: NCI-H226 lung
HCC-2998 colon = system: HCC-2998 colon
SNB-75 CNS = system: SNB-75 CNS
SK-MEL-2 melanoma = system: SK-MEL-2 melanoma
LXFL 529 NSCLC = system: LXFL 529 NSCLC
DMS 273 small cell lung = system: DMS 273 small cell lung
HS 578T breast = system: HS 578T breast
T-47D breast = system: T-47D breast
MDA-N = system: MDA-N
MCF7 breast = system: MCF7 breast
MDA-MB-231 breast = system: MDA-MB-231 breast
M19-MEL melanoma = system: M19-MEL melanoma

In the case of `CCOC(=O)/C=C(\C)c1ccc(OC)cc1`, the TGI (NCI-H226 lung) is reported as > 100 µM, the TGI (HCC-2998 colon) is reported as > 100 µM and the TGI (SNB-75 CNS) is reported as > 100 µM. The TGI (SK-MEL-2 melanoma) was > 100 µM, the TGI (LXFL 529 NSCLC) was > 100 µM and the TGI (DMS 273 small cell lung) was > 100 µM.
`Cc1ccc(S(N)(=O)=O)cc1` was tested, and the TGI (HS 578T breast) was > 1000 µM, the TGI (NCI-H226 lung) was > 1000 µM and the TGI (T-47D breast) was > 1000 µM. The TGI (MDA-N) was > 1000 µM, the TGI (HCC-2998 colon) was > 1000 µM and the TGI (MCF7 breast) was > 1000 µM. For the same compound, the TGI (SK-MEL-2 melanoma) was > 1000 µM.
With `NCc1ccc(C(=O)O)cc1` the TGI (MDA-MB-231 breast) was > 100 µM, the TGI (NCI-H226 lung) was > 100 µM and the TGI (T-47D breast) was > 100 µM. The TGI (MDA-N) was > 100 µM and the TGI (HCC-2998 colon) was > 100 µM.
In the case of `COc1cc(C2c3cc4c(cc3[C@@H](Nc3cccc(C(C)=O)c3)C3COC(=O)[C@H]23)OCO4)cc(OC)c1O` (some centres undefined), the TGI (NCI-H226 lung) is reported as 1.99 µM, the TGI (M19-MEL melanoma) is reported as > 57.7 µM and the TGI (HCC-2998 colon) is reported as 3.23 µM. For the same compound, the TGI (MCF7 breast) was 28.2 µM, the TGI (SK-MEL-2 melanoma) was 7.43 µM and the TGI (DMS 273 small cell lung) was 1.81 µM.
For `Brc1ccccc1-c1ncc(-c2ccccc2)o1`, the TGI (MDA-MB-231 breast) was > 100 µM, the TGI (HS 578T breast) was 41 µM and the TGI (T-47D breast) was > 100 µM. For the same compound, the TGI (MDA-N) was > 100 µM, the TGI (HCC-2998 colon) was 80.4 µM and the TGI (SNB-75 CNS) was 59.7 µM. For the same compound, the TGI (MCF7 breast) was > 100 µM and the TGI (SK-MEL-2 melanoma) was 89.9 µM.
For `COc1ccc(-c2cc(N3CCN(c4ccccc4)CC3)c(C#N)c(=O)o2)cc1`, the TGI (NCI-H226 lung) was 9.94 µM, the TGI (HCC-2998 colon) was > 100 µM and the TGI (SNB-75 CNS) was 31.7 µM. The TGI (SK-MEL-2 melanoma) was 53.6 µM, the TGI (LXFL 529 NSCLC) was > 100 µM and the TGI (DMS 273 small cell lung) was > 100 µM.
For `N#Cc1c(NC(=S)NC(=O)c2ccccc2)nc2c(c1-c1ccccc1)CCCC2`, the TGI (MDA-MB-231 breast) was > 100 µM, the TGI (HS 578T breast) was 35 µM and the TGI (T-47D breast) was > 100 µM. For the same compound, the TGI (MDA-N) was > 100 µM, the TGI (SNB-75 CNS) was 41.5 µM and the TGI (MCF7 breast) was > 100 µM.
`CCC(C)C(=O)c1c(O)c(C/C=C(\C)CCC=C(C)C)c(O)c2c(C(O)CC)cc(=O)oc12` (centres undefined) gave a TGI (NCI-H226 lung) of 9.11 µM, a TGI (M19-MEL melanoma) of 6.51 µM and a TGI (HCC-2998 colon) of 2.09 µM. The TGI (SNB-75 CNS) was 5.84 µM, the TGI (SK-MEL-2 melanoma) was 3.83 µM and the TGI (LXFL 529 NSCLC) was 2.99 µM. It also gave a TGI (DMS 273 small cell lung) of 8.29 µM.
With `CC(C)(Br)C1(O)CCCN1C(=O)c1ccccc1` (centres undefined) the TGI (M19-MEL melanoma) was > 100 µM, the TGI (HCC-2998 colon) was > 100 µM and the TGI (SNB-75 CNS) was > 100 µM. For the same compound, the TGI (SK-MEL-2 melanoma) was > 100 µM, the TGI (LXFL 529 NSCLC) was > 100 µM and the TGI (DMS 273 small cell lung) was > 100 µM.
`C#CC[C@@H]1C[C@]2(C)[C@H]3CC=C4[C@H]5CC(C)(C)CC[C@]5(C(=O)NCCCCN)CC[C@@]4(C)[C@]3(C)CC[C@H]2C(C)(C)[C@H]1OC(C)=O` gave a GI50 (MDA-MB-231 breast) of 1.61 µM, a TGI (MDA-MB-231 breast) of 3.1 µM and a GI50 (HS 578T breast) of 1.73 µM. It also gave a TGI (HS 578T breast) of 3.71 µM, a GI50 (T-47D breast) of 1.72 µM and a TGI (T-47D breast) of 3.48 µM. The GI50 (SNB-75 CNS) was 1.38 µM, the TGI (SNB-75 CNS) was 2.69 µM and the GI50 (SK-MEL-2 melanoma) was 1.78 µM. The TGI (SK-MEL-2 melanoma) was 3.45 µM.
Work on `ClCc1c(Cl)c(Cl)c(Cl)c(CCl)c1Cl` yielded a GI50 (MDA-MB-231 breast) of 1.81 µM, a TGI (MDA-MB-231 breast) of 3.29 µM and a GI50 (HS 578T breast) of 2.15 µM. The TGI (HS 578T breast) was 5.61 µM, the GI50 (NCI-H226 lung) was 2.53 µM and the TGI (NCI-H226 lung) was 7.3 µM. The GI50 (T-47D breast) was 1.99 µM, the TGI (T-47D breast) was 3.87 µM and the GI50 (HCC-2998 colon) was 1.78 µM. The TGI (HCC-2998 colon) was 3.45 µM, the GI50 (SNB-75 CNS) was 2.15 µM and the TGI (SNB-75 CNS) was 7.73 µM. The GI50 (MCF7 breast) was 1.73 µM, the TGI (MCF7 breast) was 3.7 µM and the GI50 (SK-MEL-2 melanoma) was 2.2 µM. The TGI (SK-MEL-2 melanoma) was 5.07 µM.
With `CCO/N=[N+](\[O-])N(CC)CC` the TGI (NCI-H226 lung) was > 100 µM, the TGI (M19-MEL melanoma) was > 100 µM and the TGI (HCC-2998 colon) was > 100 µM. The TGI (SK-MEL-2 melanoma) was > 100 µM, the TGI (LXFL 529 NSCLC) was > 100 µM and the TGI (DMS 273 small cell lung) was > 100 µM.
